According to US11952384B2, “Anti-tumor compound and preparation method and use thereof” (DUALITY BIOLOGICS (SUZHOU) CO., LTD., priority 2020, dated 2024):
Like-named read-outs stand apart in the source and are kept apart here.

Assays:
JIMT-1 cells = test: Inhibition of in vitro proliferation of tumor cells by compounds (CTG, 6 days); assay type: cell-based; details: small molecule fragments, 6 days of culture, CTG, read-out: JIMT-1 IC50
Summary of the method: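 JIMT-1 cells in RPMI-1640/10% FBS plated at 6×10^4 cells/mL, left 18 h, then exposed to 8 compound concentrations (0.1–300 nM) in duplicate for 6 days at 37° C. Viability by CellTiter-Glo luminescence; IC50 derived.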

NCI-N87 cells = test: as above; assay type: cell-based; details: small molecule fragments, 6 days of culture, CTG, read-out: NCI-N87 IC50
Summary of the method: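 NCI-N87 cells in RPMI-1640 with 10% FBS, plated and allowed 18 h attachment, then exposed in duplicate to 8 concentrations from 300 nM to 0.1 nM for 6 days at 37 °C, 5% CO2. Viability read by CellTiter-Glo luminescence; IC50 derived from the dose-response.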

BCRP = target: T1, BCRP (Homo sapiens, UniProt Q9UNQ0); test: Study on transporter substrates in Caco-2 cell model; details: Caco-2; for efflux ratio at 2 h / recovery at 2 h: human; for efflux ratio at 2 h: Caco-2, Efflux ratio
T1 sequence (Q9UNQ0 1-655): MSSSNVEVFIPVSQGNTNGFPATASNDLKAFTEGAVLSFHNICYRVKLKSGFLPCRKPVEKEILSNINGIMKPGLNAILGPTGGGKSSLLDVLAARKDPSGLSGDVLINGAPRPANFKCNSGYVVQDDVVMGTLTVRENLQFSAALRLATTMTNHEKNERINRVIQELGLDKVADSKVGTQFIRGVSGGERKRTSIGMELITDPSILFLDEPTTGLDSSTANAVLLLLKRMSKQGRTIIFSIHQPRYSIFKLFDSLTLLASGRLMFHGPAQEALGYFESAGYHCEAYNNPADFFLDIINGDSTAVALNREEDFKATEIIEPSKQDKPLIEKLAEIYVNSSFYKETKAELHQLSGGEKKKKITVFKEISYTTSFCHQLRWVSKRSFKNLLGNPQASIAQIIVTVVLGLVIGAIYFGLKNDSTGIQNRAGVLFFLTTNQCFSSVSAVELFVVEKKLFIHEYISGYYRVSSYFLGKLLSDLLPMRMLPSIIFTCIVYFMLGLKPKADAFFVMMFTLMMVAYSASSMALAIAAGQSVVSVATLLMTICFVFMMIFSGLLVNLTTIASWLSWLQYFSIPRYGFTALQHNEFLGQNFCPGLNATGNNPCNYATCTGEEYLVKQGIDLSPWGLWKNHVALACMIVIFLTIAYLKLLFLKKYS

[1] = Table 2 (untitled), Test Example 2.2
[2] = Homo sapiens, NCI-N87, 144 h, Table 1, Test Example 2.1
[3] = Homo sapiens, NCI-N87, 144 h, Table 2 (untitled), Test Example 2.2
[4] = Caco-2, Recovery rate (%) BL-AP, KO143 −
[5] = Caco-2, with KO143 (concentration not stated), Recovery rate (%) AP-BL, KO143 +
[6] = Caco-2, with KO143 (concentration not stated), Recovery rate (%) BL-AP, KO143 +
[7] = Homo sapiens, JIMT-1, 144 h, Table 1, Test Example 2.1
[8] = Homo sapiens, JIMT-1, 144 h, Table 2 (untitled), Test Example 2.2
[9] = Caco-2, Recovery rate (%) AP-BL, KO143 −

`CC[C@@]1(O)C(=O)OCc2c1cc1n(c2=O)Cc2c-1nc1cc(F)c(C)c3c1c2[C@@H](NC(=O)C1CCC(O)CC1)CC3` (single isomer, unassigned) [P-II-1] was tested. Which IC50 (JIMT-1 cells; Table 1, Test Example 2.1) did it give?
The IC50 was 8.47 nM.

And the IC50 (JIMT-1 cells; [1])?
Its IC50 is 8.5 nM.

And the IC50 (NCI-N87 cells; [2])?
The IC50 was 18.5 nM.

And the IC50 (NCI-N87 cells; [3])?
Its IC50 is 18.5 nM.

And the “Recovery rate (%) AP-BL” value (BCRP; KO143 −)?
The value was 80.87%.

What about the efflux ratio at 2 h (BCRP; KO143 −) of the same molecule?
Its efflux ratio at 2 h is 28.7.

What about the recovery at 2 h (BCRP; [4]) of the same molecule?
The recovery at 2 h was 77.5%.

And the recovery at 2 h (BCRP; [5])?
Its recovery at 2 h is 76.9%.

And the recovery at 2 h (BCRP; [6])?
Its recovery at 2 h is 76.5%.

Which IC50 (JIMT-1 cells; Table 1, Test Example 2.1) does the source give for `CC[C@@]1(O)C(=O)OCc2c1cc1n(c2=O)Cc2c-1nc1cc(F)c(C)c3c1c2[C@@H](NC(=O)C1CCC(O)CC1)CC3` (single isomer, unassigned) [P-II-2] here?
Its IC50 is 17 nM.

And the IC50 (JIMT-1 cells; [1])?
The IC50 was 17.2 nM.

What about the IC50 (NCI-N87 cells; Table 1, Test Example 2.1) of the same molecule?
Its IC50 is 22.1 nM.

And the IC50 (NCI-N87 cells; [1])?
Its IC50 is 22.1 nM.

And the “Recovery rate (%) AP-BL” value (BCRP; KO143 +)?
Its value is 62.42%.

And the “Recovery rate (%) BL-AP” value (BCRP; KO143 +)?
The value was 62.86%.

What about the Efflux ratio (BCRP; KO143 −) of the same molecule?
The Efflux ratio was 30.08.

And the “Recovery rate (%) AP-BL” value (BCRP; KO143 −)?
Its value is 59.32%.

What about the “Recovery rate (%) BL-AP” value (BCRP; KO143 −) of the same molecule?
The value was 58.51%.

What does the source list for `CC[C@@]1(O)C(=O)OCc2c1cc1n(c2=O)Cc2c-1nc1cc(F)c(C)c3c1c2[C@@H](NC(=O)[C@H]1C[C@@H](O)C1)CC3` [P-II-3, (1s,3R)-N-((1S,9S)-9-ethyl-5-fluoro-9-hydroxy-4-methyl-10,13-dioxo-2,3,9,10,13,15-hexahydro-1H,12H-benzo[de]pyrano[3′,4′:6,7]indolizino[1,2-b]quinolin-1-yl)-3-hydroxycyclobutane-1-carboxamide]?
IC50 (JIMT-1 cells; [7]): 5 nM; IC50 (JIMT-1 cells; [8]): 5 nM; IC50 (NCI-N87 cells; [2]): 9.56 nM; IC50 (NCI-N87 cells; [3]): 9.56 nM; efflux ratio at 2 h (BCRP; KO143 −): 28.7; recovery at 2 h (BCRP; [9]): 80.9%; recovery at 2 h (BCRP; [4]): 77.5%; recovery at 2 h (BCRP; [5]): 76.9%; recovery at 2 h (BCRP; [6]): 76.5%

Which results are given for `CC[C@@]1(O)C(=O)OCc2c1cc1n(c2=O)Cc2c-1nc1cc(F)c(C)c3c1c2[C@@H](NC(=O)[C@H]1C[C@H](O)C1)CC3` [P-II-4, (1r,3S)-N-((1S,9S)-9-ethyl-5-fluoro-9-hydroxy-4-methyl-10,13-dioxo-2,3,9,10,13,15-hexahydro-1H,12H-benzo[de]pyrano[3′,4′:6,7]indolizino[1,2-b]quinolin-1-yl)-3-hydroxycyclobutane-1-carboxamide]?
IC50 (JIMT-1 cells; [7]): 6.64 nM; IC50 (JIMT-1 cells; [8]): 6.6 nM; IC50 (NCI-N87 cells; [2]): 8.03 nM; IC50 (NCI-N87 cells; [3]): 8.03 nM; efflux ratio at 2 h (BCRP; KO143 −): 36.1; recovery at 2 h (BCRP; [9]): 63.8%; recovery at 2 h (BCRP; [4]): 64%; recovery at 2 h (BCRP; [5]): 65%; recovery at 2 h (BCRP; [6]): 63%

Which results are given for `CC[C@@]1(O)C(=O)OCc2c1cc1n(c2=O)Cc2c-1nc1cc(F)c(C)c3c1c2[C@@H](NC(=O)C[C@@H](C)O)CC3` [P-III-20, (R)—N-((1S,9S)-9-ethyl-5-fluoro-9-hydroxy-4-methyl-10,13-dioxo-2,3,9,10,13,15-hexahydro-1H,12H-benzo[de]pyrano[3′,4′: 6,7]indolizino[1,2-b]quinolin-1-yl)-3-hydroxybutanamide]?
IC50 (JIMT-1 cells; [7]): 4.35 nM; IC50 (JIMT-1 cells; Homo sapiens, JIMT-1, 144 h, Table 3, Test Example 2.3): 4.35 nM; IC50 (NCI-N87 cells; [2]): 5.89 nM; IC50 (NCI-N87 cells; Homo sapiens, NCI-N87, 144 h, Table 3, Test Example 2.3): 5.89 nM; IC50 (NCI-N87 cells; Homo sapiens, NCI-N87, 144 h, Table 4, Test Example 2.4): 5.9 nM
